Reference: ChEMBL document CHEMBL1201862, “PubChem BioAssay data set” (2004)
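48-hour exposure; five concentrations; linearly interpolated endpoints. Abbreviation: GI50, concentration required for 50% inhibition of growth.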 Activity calls are given as the source filed them. Cut-off read from the data, not from the text of the source: active = GI50 up to about 1.1 µM and inactive = higher.

How the values were obtained:
Assay in all cases: NCI anticancer screen, dose series, 48 h
[1] = tested on: UACC-257
[2] = tested on: M19-MEL
[3] = tested on: RXF 393
[4] = tested on: OVCAR-4
[5] = tested on: HCC 2998
[6] = tested on: HOP-92
[7] = tested on: SNB-75
[8] = tested on: U-251
[9] = tested on: SN12C
[10] = tested on: NCI-H23
[11] = tested on: NCI-H522
[12] = tested on: TK-10
[13] = tested on: CCRF-CEM
[14] = tested on: MOLT-4
[15] = tested on: SK-OV-3
[16] = tested on: SNB-19
[17] = tested on: OVCAR-5
[18] = tested on: NCI-H226
[19] = tested on: DMS-114

Measured: GI50

O=C1C=C(Nc2ccc(S(=O)(=O)Nc3ncccn3)cc2)c2ccccc2C1=O
inactive: [1] 20.1 µM | [2] 15.5 µM | [3] 23.3 µM | [4] 21.8 µM | [5] 18 µM | [6] 33 µM | [7] 25.1 µM | [8] 17.6 µM | [9] 21.5 µM | [10] 17.4 µM | [11] 17.8 µM | [12] 37.4 µM | [13] 26.3 µM | [14] 48.5 µM | [15] 26.7 µM | [16] 31.2 µM | [17] 19.5 µM | [18] 28.4 µM

O=C(Nc1cccs1)c1c(O)[nH]c(=S)[nH]c1=O
inactive: [1] > 100 µM | [4] > 100 µM | [6] > 100 µM | [8] > 100 µM | [9] > 100 µM | [10] > 100 µM | [11] > 100 µM | [12] > 100 µM | [13] > 100 µM | [14] > 100 µM | [15] > 100 µM | [16] > 100 µM | [19] > 100 µM | [17] > 100 µM | [18] > 100 µM

COC(=O)C1=CO[C@@H](OC2CC(CO)C(O)C(O)C2O)[C@@H]2[C@@H](C)[C@@H](OC(=O)/C=C/c3ccccc3)[C@@H](O)[C@H]12.COC(=O)C1=CO[C@@H](OC2CC(CO)C(O)C(O)C2O)[C@@H]2[C@@H](C)[C@@H](OC(=O)c3ccccc3)[C@@H](O)[C@H]12 (stereo partly specified)
inactive: [1] > 100 µM | [2] > 100 µM | [4] > 100 µM | [5] > 100 µM | [6] > 100 µM | [7] > 100 µM | [8] > 100 µM | [9] > 100 µM | [10] > 100 µM | [11] > 100 µM | [12] > 100 µM | [13] > 100 µM | [14] > 100 µM | [15] > 100 µM | [16] 10 µM | [19] > 100 µM | [17] > 100 µM | [18] > 100 µM

CC(=O)NNc1nc(C)c(C(=O)NNC(=O)C(=O)Nc2c(C)cccc2C(C)C)s1
inactive: [1] 64.3 µM | [2] > 100 µM | [4] 32.8 µM | [5] > 100 µM | [6] 78 µM | [8] 5.97 µM | [9] > 100 µM | [10] > 100 µM | [11] 35.4 µM | [12] > 100 µM | [13] 34.5 µM | [14] 44.4 µM | [15] > 100 µM | [16] > 100 µM | [19] 86.7 µM | [17] > 100 µM | [18] 79.4 µM

CCOC(=O)c1ccn2c(c1)c(C#N)c1nc3ccccc3nc12
inactive: [1] > 100 µM | [2] 61.8 µM | [4] 91 µM | [5] 53.1 µM | [7] 13.3 µM | [8] 76.7 µM | [9] 83.8 µM | [10] 37.2 µM | [11] 45.3 µM | [12] 75.9 µM | [13] 18.5 µM | [14] 18.1 µM | [15] 55.1 µM | [16] 61 µM | [19] 52.2 µM | [17] > 100 µM

Cc1ccccc1/N=N/C(C(=O)c1ccccc1)C(=O)c1ccccc1
inactive: [1] 26.7 µM | [2] 17.5 µM | [4] 18.7 µM | [5] 40.8 µM | [6] 17.9 µM | [7] 19.1 µM | [8] 16 µM | [9] 20 µM | [10] 18.3 µM | [11] 15.7 µM | [12] 44.8 µM | [13] 9.46 µM | [14] 13.4 µM | [15] 41.6 µM | [16] 18.9 µM | [19] 19.4 µM | [17] 31.1 µM | [18] 11.7 µM

CCOC(=O)Oc1ccc2[nH]c3c(C)cc(N)c(C)c3c2c1
inactive: [1] > 100 µM | [2] > 100 µM | [4] > 100 µM | [5] > 100 µM | [7] > 100 µM | [9] > 100 µM | [10] > 100 µM | [11] > 100 µM | [12] > 100 µM | [13] > 100 µM | [14] 78.9 µM | [16] > 100 µM | [19] 46.7 µM | [17] > 100 µM | [18] > 100 µM

O=C(NC(=O)c1cn(CCN2CCNCC2)c(=O)[nH]c1=O)OCc1ccccc1
inactive: [2] > 100 µM | [4] > 100 µM | [6] > 100 µM | [7] 68.9 µM | [8] > 100 µM | [9] > 100 µM | [10] > 100 µM | [11] > 100 µM | [13] > 100 µM | [14] > 100 µM | [15] > 100 µM | [19] 63.5 µM | [17] > 100 µM | [18] > 100 µM
